Molecules are shown by their SMILES. Like-named read-outs stand apart in the source and are kept apart here. Some results are limits rather than exact numbers.

From US20240287043A1, “KETOAMIDE DERIVATIVE AND APPLICATION THEREOF” (GUANGDONG RAYNOVENT BIOTECH CO., LTD., priority 2021, published 2024) come the findings set out here.

The nature of data set [1]: Cytotoxicity assay in MRC5 cells without viral infection (CellTiter Glo). The format is cell-based. As to conditions: human, no viral infection. An excerpt:
The calculation formulas were as below: […]
For orientation: In ATP-based viability assays light output follows the ATP content of the culture.

The next data set in a line: in vivo. As to conditions: male, C57BL/6J, mouse.
In the next data set the test system is HCoV OC43. Kind of data set: In vitro anti-coronavirus activity using a cytopathic model (CPE, CellTiter Glo). As to conditions: Betacoronavirus 1, OC43, MRC5, 120 h. Background: Protection from cytopathic effect is a common read-out in antiviral testing.
Another data set deals with SARS-COV-2 Mpro (Severe acute respiratory syndrome coronavirus 2, UniProt P0DTD1). Kind of data set: In vitro inhibitory activity against Mpro protease of novel coronavirus (fluorescence substrate assay). The conditions noted are these: 25 nM Mpro protein, 25 μM substrate. It is filed as biochemical.
For data set [2] the following is noted: male, C57BL/6J, mouse, in vivo.

On to `O=C(NC1CCCC1)C(=O)[C@H](C[C@@H]1CCNC1=O)NC(=O)[C@@H]1[C@H]2CCC[C@H]2CN1C(=O)[C@@H](NC(=O)C(F)(F)F)C1CCCCC1` [Compound 1], for which the CC50 (usually the concentration giving 50% cytotoxicity) at 5 days in data set [1] was greater than 10000 nM. For the same molecule, in “in vivo” (iv, 3 mg/kg), the AUC(0-t) (as a rule, the area under the concentration-time curve up to a stated or last time point) was 7.79 µM·h; the Vd (usually the apparent volume that relates the amount in the body to the concentration in plasma or blood) turned out to be 1.38 L/kg; the clearance (commonly the rate of elimination divided by the concentration) was 10.1 mL/min/kg; the concentration at 0.083 h stood at 6770 nM. Moreover, in the data set “in vivo” (iv, 3 mg/kg), the concentration at 0.25 h is 5530 nM, the concentration at 0.5 h came out at 3930 nM, the concentration at 1 h was determined as 1960 nM and the concentration at 2 h came out at 867 nM. Besides, in “in vivo” (iv, 3 mg/kg), the concentration at 4 h came out at 293 nM; the concentration at 8 h came to 89.7 nM; the concentration at 24 h amounted to 6.59 nM; the half-life (as a rule, how long it takes for the measured level to halve) was 3.8 h. In “in vivo” (po, 10 mg/kg), the AUC(0-t) is 5.7 µM·h; the concentration peaked (Cmax) at 1290 nM; the Tmax (as a rule, the time at which the peak concentration occurs) is 2 h; the bioavailability (in general, dose-corrected exposure relative to a reference, in per cent) turned out to be 22%. In addition, in “in vivo” (po, 10 mg/kg), the concentration at 0.25 h was determined as 533 nM, the concentration at 0.5 h is 706 nM, the concentration at 1 h was 952 nM and the concentration at 2 h amounted to 1290 nM. For the same molecule, in the data set “in vivo” (po, 10 mg/kg), the concentration at 4 h was determined as 661 nM, the concentration at 6 h stood at 291 nM, the concentration at 8 h amounted to 187 nM and the concentration at 24 h stood at 2.69 nM. This molecule had a half-life in the data set “in vivo” (po, 10 mg/kg) of 2.63 h. Further, it took 259 nM to reach a half-maximal effect in the data set with HCoV OC43 (EC50).

Molecule `O=C(NCc1ccccc1)C(=O)[C@H](C[C@@H]1CCNC1=O)NC(=O)[C@@H]1[C@H]2CCC[C@H]2CN1C(=O)[C@@H](NC(=O)C(F)(F)F)C1CCCCC1` [Compound 2] gave a CC50 at 5 days in data set [1] greater than 10000 nM. Moreover, on SARS-COV-2 Mpro, the IC50 (as a rule, the midpoint of a concentration-inhibition curve) came out at 11 nM. Moreover, the 50% effective concentration (EC50) – broadly, the concentration giving half of the maximal effect – in the data set with HCoV OC43 was 368 nM.

`CC(C)(C)NC(=O)C(=O)[C@H](C[C@@H]1CCNC1=O)NC(=O)[C@@H]1[C@H]2CCC[C@H]2CN1C(=O)[C@@H](NC(=O)C(F)(F)F)C1CCCCC1` [Compound 3]: the cytotoxic concentration (CC50) at 5 days in data set [1] is greater than 10000 nM. The molecule also displayed an AUC(0-t) in “in vivo” (iv, 3 mg/kg) of 30.6 µM·h. In “in vivo” (po, 10 mg/kg), the exposure AUC(0-t) turned out to be 33 µM·h, the Tmax was 1.5 h, the bioavailability amounted to 32% and the half-life is 5.4 h. On SARS-COV-2 Mpro, this molecule gave an IC50 of 25 nM. Moreover, in data set [2] (iv, 3 mg/kg), the Cl is 2.50 mL/min/kg; the T1/2 stood at 6.24 h; the Vdss (usually a proportionality between amount in the body and measured concentration, not a real space) is on record as 1.27 L/kg. Further, in data set [2] (po, 10 mg/kg), the concentration peaked (Cmax) at 4810 nM. The molecule also displayed a concentration for a half-maximal effect (EC50) in the data set on HCoV OC43 of 146 nM.

In turn, `CC(C)(C)NC(=O)C(=O)[C@H](C[C@@H]1CCNC1=O)NC(=O)[C@@H]1[C@H]2CCC[C@H]2CN1C(=O)[C@@H](NC(=O)C(F)(F)F)C1CCC1` [Compound 4] returned a half-maximal cytotoxic concentration (CC50) at 5 days in data set [1] greater than 10000 nM. The molecule further registered an IC50 on SARS-COV-2 Mpro of 104 nM. For the same molecule, it took 823 nM to reach a half-maximal effect with HCoV OC43 (EC50).

As for `CC(C)(C)NC(=O)C(=O)[C@H](C[C@@H]1CCNC1=O)NC(=O)[C@@H]1[C@H]2CCC[C@H]2CN1C(=O)[C@@H](NC(=O)C(F)(F)F)C1CCCC1` [Compound 5], the CC50 at 5 days in data set [1] is greater than 10000 nM. On SARS-COV-2 Mpro, this molecule yielded an IC50 of 50 nM. The same molecule showed an EC50 in the data set on HCoV OC43 of 368 nM.

`CC1([C@H](NC(=O)C(F)(F)F)C(=O)N2C[C@@H]3CCC[C@@H]3[C@H]2C(=O)N[C@@H](C[C@@H]2CCNC2=O)C(=O)C(=O)NC2CCCC2)CCCCC1` [Compound 6] yielded an IC50 against SARS-COV-2 Mpro of 12 nM.

As for `CC(C)(C)[C@H](NC(=O)C(F)(F)F)C(=O)N1C[C@H]2[C@@H]([C@H]1C(=O)N[C@H](C#N)CC1CCNC1=O)C2(C)C` (stereo partly shown) [PF-07321332, reference compound], in the data set “in vivo” (iv, 3 mg/kg), the AUC(0-t) was 3.33 µM·h, the Vd came out at 0.456 L/kg, the clearance was 30.2 mL/min/kg and the half-life is 0.71 h. Also, in “in vivo” (po, 10 mg/kg), the AUC(0-t) was found to be 3.58 µM·h, the Cmax (commonly the peak of the concentration-time curve) is 2720 nM, the Tmax came out at 0.292 h and the bioavailability came to 32.7%. This molecule showed a half-life in the data set “in vivo” (po, 10 mg/kg) of 1.1 h.
